Values joined by “and” are separate entries in the source; they are usually repeats but may differ in a detail not shown here. Equal values may be shown once.
Experiments:
Assay type in all cases: in vivo, human
[1] = Reported lithium blood levels during prophylaxis therapy; settings: study patients with good adherence to lithium prophylaxis therapy
Text: To assess response to long-term lithium prophylaxis treatment in BPI disorder, we prepared a life chart with graphic depiction of lifetime clinical course for each of the BPI patients recruited before June 2012 (N=1761). This life chart included all manic, hypomanic, and depressive episodes with date of onset (year and month), duration, and severity (including the extent of functional disability, hospitalization, and the presence of psychotic features), all doses of and duration of treatment with psychotropics and mood stabilizers known have been prescribed, drug adherence recorded in medical chart for all visits at outpatient clinics, all recorded blood levels of mood stabilizers, and any adverse drug reactions. We depicted this information graphically, based on integrated information gathered from direct interview with patients and their family members, interviews with in-charge psychiatrists, and a thorough medical chart review. Based on this life chart, we determined whether individual patients had good drug adherence.
(§1) For patients in the second test of replication, we carried out regular follow-up evaluations (usually monthly and at least once every 3 months), including assay of lithium to assess drug adherence, and a SCAN interview to assess clinical condition, at outpatient clinics for at least 2 years.

[2] = system: bipolar I (BPI) disorder patients; assay: Response to long-term lithium prophylaxis treatment, Alda Scale (retrospective, life chart; GWAS and replication groups)
Text: We carried out a “discovery” GWAS, and two tests of replication. […] We genotyped each of the 1647 patients by array (see below).
To assess response to long-term lithium prophylaxis treatment in BPI disorder, we prepared a life chart with graphic depiction of lifetime clinical course for each of the BPI patients recruited before June 2012 (N=1761). […] We depicted this information graphically, based on integrated information gathered from direct interview with patients and their family members, interviews with in-charge psychiatrists, and a thorough medical chart review.
The phenotype of lithium response was assessed based on the life chart, using the Retrospective Criteria of Long-Term Treatment Response in Research Subjects with Bipolar Disorder developed by Martin Alda and Colleagues (Alda Scale). The Alda scale has two criteria. […] Criterion B (B1-B5, each rated as 0, 1 or 2 points) is used to establish whether there is a causal relationship between clinical improvement and the treatment. B1 and B2 indicate the recurrence risk off the lithium treatment [number (B1) and frequency (B2) of episodes]. B3 is a measure of the length of lithium treatment. B4 indicates compliance with lithium. B5 is a measure of concomitant psychotropic medication during periods of stability. The total score is obtained by subtracting the sum of the B scores from the A score.
In investigating a causal relationship between lithium treatment and clinical improvement of individual patients, it is important to ensure (i) comparability in clinical course between on-lithium and off-lithium periods (number, frequency and severity of episodes); (ii) satisfactory drug compliance, and (iii) the minimization of influence from additional medications (hypnotics, antidepressants, antipsychotics, and other mood stabilizers). We determined inclusion criteria accordingly, to minimize the misclassification of responders and non-responders.
See, e.g., Grof et al., J Clin Psychiatry 2002; 63:942-7; and Squassina et al, Pharmacogenomics 2011; 12:1559-69.

[3] = system: bipolar I (BPI) disorder patients; assay: Follow-up study (second test of replication) of 24 patients on lithium monotherapy, Alda Scale; set-up: key to A − B (total score of Alda Scale): Alda total = A score minus sum of B1-B5 scores (each 0-2); settings: for A − B (total score of Alda Scale): individual patients, follow-up 2-5 yrs
Text: In a second test of replication, we genotyped an independent series of 24 patients who had received lithium monotherapy for at least 2 years, through May 2012. We based their inclusion on a life chart (see Phenotype Definition and Assessment below) constructed for all patients in the 1647-patient sample. Each of these 24 patients had good drug adherence to mood stabilizer(s) other than lithium prior to their commencement of lithium monotherapy but with unsatisfactory response.
The phenotype of lithium response was assessed based on the life chart, using the Retrospective Criteria of Long-Term Treatment Response in Research Subjects with Bipolar Disorder developed by Martin Alda and Colleagues (Alda Scale). The Alda scale has two criteria. Criterion A measures the extent of clinical improvement in illness activity and takes into account the frequency, duration, and severity of episodes during periods of lithium treatment considered adequate in duration and dosage, compared with the frequency, duration, and severity of episodes during periods off the lithium treatment, on a scale from 0 (no change, or exacerbation of disease severity) to 10 (complete remission). Criterion B (B1-B5, each rated as 0, 1 or 2 points) is used to establish whether there is a causal relationship between clinical improvement and the treatment. B1 and B2 indicate the recurrence risk off the lithium treatment [number (B1) and frequency (B2) of episodes]. B3 is a measure of the length of lithium treatment. B4 indicates compliance with lithium. B5 is a measure of concomitant psychotropic medication during periods of stability. The total score is obtained by subtracting the sum of the B scores from the A score.
as §1

[4] = 394 bipolar I patients under lithium prophylaxis, B5 = 2 (prolonged antidepressant and/or antipsychotic and/or mood stabilizer)

In the case of [Li] [lithium], the lithium blood levels [1] is reported as no less than 0.5 mM, the “Good response to treatment (A − B ≧ 6)” value ([2]; 394 bipolar I patients under lithium prophylaxis, B5 = 1 (low dose antidepressants and/or antipsychotics and/or prolonged sleep medication)) is reported as 124 (50.4) N(%) and the “Good response to treatment (A − B ≧ 6)” value [2, 4] is reported as 5 (5.0) N(%). For the same compound, the “Poor response to treatment (A − B < 6)” value [2, 4] was 96 (95.0) N(%), the “Good response to treatment (A − B ≧ 6)” value ([2]; 394 bipolar I patients under lithium prophylaxis, additional medication B5 = 0 (none except infrequent sleep medication)) was 30 (63.8) N(%) and the “Poor responders to treatment at cutoff 5/6” value ([2]; study subjects with a B5 score of 2) was 95.0%. The “total Alda score, range” value ([3]; carriers of the response alleles (N=16), good response) was 8-10, the “A − B (total score of Alda Scale)” value ([3]; rs17026688 genotype CC) was 3 (3×) and 2 (2×) and 0 (3×) and the “A − B (total score of Alda Scale)” value ([3]; rs17026688 genotype CT) was 10 (5×) and 9 (6×) and 8. For the same compound, the “A − B (total score of Alda Scale)” value ([3]; rs17026688 genotype TT) was 9 and the “total Alda score, range” value ([3]; non-carriers (N=8), poor response) was 0-3.
